{"source": "paper PMC5321753", "about": "“Enhanced expression of ADCY1 underlies aberrant neuronal signalling and behaviour in a syndromic autism model” (Nature Communications, 2017)", "key": {"mice [1]": {"test_system": "mice", "experiment": "NB001 toxicology study (body weight, organ weight, histology)", "type": "in vivo, mouse", "method": "(§1) Mice at 3 months (+/−10 days) of age were IP injected with NB001 twice daily at 50 mg kg^−1 for 2 weeks. Clinical observations were performed twice daily and body weights were measured on various days during the dosing regimen. At the end of the dosing period, mice were killed and blood was collected for clinical pathology (Diagnostic Center for Population and Animal Health, Michigan State University). The liver and kidney were collected and fixed in 10% buffered formalin (INVIVO facility at Michigan State University)."}, "mice [2]": {"test_system": "mice", "experiment": "Clinical panel blood test after 14 days of NB001", "type": "in vivo, mouse", "method": "as §1"}, "ADCY1": {"test_system": "ADCY1", "design": "method as in PMID 21228397", "conditions": "intact cells; cited from earlier work"}, "neuropathic pain": {"test_system": "neuropathic pain", "design": "method as in PMID 21228397", "conditions": "systemic administration; cited from earlier work"}, "[3]": {"conditions": "NB001 50 mg kg^-1 IP twice a day for 14 days"}, "[4]": {"conditions": "NB001 50 mg kg^-1 twice a day for 14 days"}, "[5]": {"conditions": "blood, NB001 50 mg per kg twice per day for 14 days"}, "[6]": {"conditions": "blood, NB001 50 mg per kg twice per day for 14 days, mean ± SEM"}}, "data": [{"smiles": "Nc1ncnc2c1ncn2CCNCCCCCO", "note": "[NB001, 5-{[2-(6-amino-9H-purin-9-yl)ethyl]amino}-1-pentanol]", "values": [{"measurement": "body weight", "setting": "mice [1]; [3]", "value": "did not affect"}, {"measurement": "weight of major organs including heart/lung, kidney and liver", "setting": "mice [1]; [3]", "value": "did not affect"}, {"measurement": "histopathology in kidney and liver", "setting": "mice [1]; NB001 50 mg kg^-1 IP twice a day for 14 days, H&E staining", "value": "no significant sign of histopathology"}, {"measurement": "side effects following two weeks of high dose administration", "setting": "mice [1]; [4]", "value": "no significant side effects"}, {"measurement": "concentrations of various electrolytes and levels of the main toxicity-related proteins (such as aminotransferases)", "setting": "mice [2]; [4]", "value": "no effect"}, {"measurement": "ALT", "setting": "mice [2]; alanine aminotransferase, blood, NB001 50 mg per kg twice per day for 14 days, mean ± SEM", "value": "18.50 ±0.96", "unit": "U/L"}, {"measurement": "ALP", "setting": "mice [2]; alkaline phosphatase, blood, NB001 50 mg per kg twice per day for 14 days, mean ± SEM", "value": "62.75 ±4.48", "unit": "U/L"}, {"measurement": "AST", "setting": "mice [2]; aspartate aminotransferase, blood, NB001 50 mg per kg twice per day for 14 days, mean ± SEM", "value": "32.50 ±1.55", "unit": "U/L"}, {"measurement": "Hemolysis Chem", "setting": "mice [2]; [5]", "value": "Normal"}, {"measurement": "Icterus Chem", "setting": "mice [2]; [5]", "value": "Normal"}, {"measurement": "Lipemia Chem", "setting": "mice [2]; [5]", "value": "Normal"}, {"measurement": "Albumin", "setting": "mice [2]; [6]", "value": "2.65 ± 0.13", "unit": "g/dL"}, {"measurement": "Amylase", "setting": "mice [2]; [6]", "value": "586.50 ±29.02", "unit": "U/L"}, {"measurement": "Anion Gap", "setting": "mice [2]; [6]", "value": "29.50 ± 2.36", "unit": "mmol/L"}, {"measurement": "Calcium", "setting": "mice [2]; [6]", "value": "8.83 ± 0.20", "unit": "mg/dL"}, {"measurement": "Chol", "setting": "mice [2]; [6]", "value": "100.00 ± 5.96", "unit": "mg/dL"}, {"measurement": "Glucose", "setting": "mice [2]; [6]", "value": "216.50 ± 8.50", "unit": "mg/dL"}, {"measurement": "Magnesium", "setting": "mice [2]; [6]", "value": "2.60 ± 0.11", "unit": "mg/dL"}, {"measurement": "Na/K Ratio", "setting": "mice [2]; [6]", "value": "32.00 ±1.47"}, {"measurement": "Osmolarity", "setting": "mice [2]; [6]", "value": "321.00 ±4.00", "unit": "mOs/L"}, {"measurement": "Phosphorus", "setting": "mice [2]; [6]", "value": "6.50 ± 0.24", "unit": "mg/dL"}, {"measurement": "Potassium", "setting": "mice [2]; [6]", "value": "4.73 ± 0.22", "unit": "mmol/L"}, {"measurement": "Sodium", "setting": "mice [2]; [6]", "value": "150.50 ± 1.50", "unit": "mmol/L"}, {"measurement": "Total CO2", "setting": "mice [2]; [6]", "value": "13.50 ± 1.04", "unit": "mmol/L"}, {"measurement": "Urea Nitrogen", "setting": "mice [2]; [6]", "value": "24.50 ± 0.87", "unit": "mg/dL"}, {"measurement": "inhibition of ADCY1 activity versus other types of adenylyl cyclases", "setting": "ADCY1", "value": "preferentially inhibits ADCY1 activity over other types of adenylyl cyclases"}, {"measurement": "neuropathic pain", "setting": "neuropathic pain", "value": "attenuates"}]}]}
